Results on 44 molecules are retold here after ChEMBL document CHEMBL4340544, “Discovery of 4,6-bis(benzyloxy)-3-phenylbenzofuran as a novel Pin1 inhibitor to suppress hepatocellular carcinoma via upregulating microRNA biogenesis” (Bioorg Med Chem, 2019).

Calls of active or inactive are those of the source. No cut-off for these calls is given here.

Assay [1] addresses T1, Peptidyl-prolyl cis-trans isomerase NIMA-interacting 1 (Homo sapiens, UniProt Q13526). The assay is described as follows: Inhibition of N-terminal 6-His tagged full length Pin1 (unknown origin) expressed in Escherichia coli at 10 uM using Suc-AEPF-pNA as substrate preincubated for 10 mins followed by substrate addition and measured for 180 secs by spectrophotometry relative to untreated control.

Assay [2] concerns the target T1, Peptidyl-prolyl cis-trans isomerase NIMA-interacting 1. Nature of the assay: Inhibition of N-terminal 6-His tagged full length Pin1 (unknown origin) expressed in Escherichia coli using Suc-AEPF-pNA as substrate preincubated for 10 mins followed by substrate addition and measured for 180 secs by spectrophotometry.
The target in assay [3] is Peptidyl-prolyl cis-trans isomerase NIMA-interacting 4 (Homo sapiens) (UniProt Q9Y237). The assay is described as follows: Inhibition of recombinant N-terminal His6-tagged Pin4 (unknown origin) expressed in Escherichia coli at 1 to 50 uM using Suc-AEPF-pNA as substrate preincubated for 10 min followed by substrate addition measured for 180 secs.
For assay [4], the target named is Peptidyl-prolyl cis-trans isomerase A (Homo sapiens) (UniProt P62937). Nature of the assay: Inhibition of recombinant N-terminal His6-tagged Cyclophilin A (unknown origin) expressed in Escherichia coli at 1 to 50 uM using Suc-AEPF-pNA as substrate preincubated for 10 min followed by substrate addition measured for 180 secs.
Assay [5] deals with T1, Peptidyl-prolyl cis-trans isomerase NIMA-interacting 1. Nature of the assay: Inhibition of recombinant N-terminal His6-tagged Pin1 (unknown origin) expressed in Escherichia coli at 1 to 50 uM using Suc-AEPF-pNA as substrate preincubated for 10 min followed by substrate addition measured for 180 secs.
In assay [6] the test system is SK-HEP1. Nature of the assay: Cytotoxicity against human SKHEP1 cells assessed as reduction in cell viability by MTT assay. It counts as functional, cell-based.
A further assay deals with SNU-423. Nature of the assay: Cytotoxicity against human SNU423 cells assessed as reduction in cell viability by MTT assay. Type of assay: functional, cell-based. (In general: Formazan colour is commonly taken as a measure of viable cells.)
Assay [7] has as its system SK-HEP1. The assay is described as follows: Antiproliferation activity against human SKHEP1 cells assessed as reduction in colony formation at 2.5 uM measured after 7 days by crystal violet staining based microscopic analysis. It counts as functional, cell-based.
For assay [8], the target named is T1, Peptidyl-prolyl cis-trans isomerase NIMA-interacting 1. The assay is described as follows: Inhibition of Pin1 in human SKHEP1 cells assessed as increase in cytoplasm distribution of XPO5 at 2.5 uM incubated for 36 hrs by DAPI staining based confocal microscopic analysis. Type of assay: cell-based.
For assay [9] the target is unchanged. The assay is described as follows: Inhibition of Pin1 in human SKHEP1 cells assessed as increase in miR-122 expression at 2.5 uM incubated for 36 hrs by quantitative RT PCR analysis. Type of assay: cell-based.
Assay [10] has the same target. Nature of the assay: Inhibition of Pin1 in human SKHEP1 cells assessed as increase in miR-29b expression at 2.5 uM incubated for 36 hrs by quantitative RT PCR analysis. It counts as cell-based.
In assay [11] the target is Peptidyl-prolyl cis-trans isomerase FKBP1A (Homo sapiens) (UniProt P62942). Nature of the assay: Inhibition of recombinant N-terminal His6-tagged FKBP12 (unknown origin) expressed in Escherichia coli at 1 to 50 uM using Suc-AEPF-pNA as substrate preincubated for 10 min followed by substrate addition measured for 180 secs.
Sequence of Peptidyl-prolyl cis-trans isomerase FKBP1A (Homo sapiens) (P62942 whole entry, looked up): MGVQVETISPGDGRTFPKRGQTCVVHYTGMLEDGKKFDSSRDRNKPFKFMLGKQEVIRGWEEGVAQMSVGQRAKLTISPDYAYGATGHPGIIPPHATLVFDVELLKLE

T1 sequence (Q13526 whole entry): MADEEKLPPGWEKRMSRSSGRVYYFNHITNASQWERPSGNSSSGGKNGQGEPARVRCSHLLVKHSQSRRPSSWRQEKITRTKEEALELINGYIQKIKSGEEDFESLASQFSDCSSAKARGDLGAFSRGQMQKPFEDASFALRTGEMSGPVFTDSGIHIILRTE
Sequence of Peptidyl-prolyl cis-trans isomerase A (Homo sapiens) (P62937 whole entry, looked up): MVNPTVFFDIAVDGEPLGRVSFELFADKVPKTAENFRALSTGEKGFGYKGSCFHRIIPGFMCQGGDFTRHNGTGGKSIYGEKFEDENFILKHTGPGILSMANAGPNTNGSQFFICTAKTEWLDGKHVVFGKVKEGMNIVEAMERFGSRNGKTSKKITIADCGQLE
Sequence of Peptidyl-prolyl cis-trans isomerase NIMA-interacting 4 (Homo sapiens) (Q9Y237 whole entry): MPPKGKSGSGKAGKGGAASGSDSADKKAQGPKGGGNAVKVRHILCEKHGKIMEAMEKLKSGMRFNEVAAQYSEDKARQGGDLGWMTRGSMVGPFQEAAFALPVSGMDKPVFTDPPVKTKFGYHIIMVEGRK

Broadly, the inhibition is the percentage by which the read-out fell short of the control. In the case of `COc1ccc(-c2coc3ccccc23)cc1`, the inhibition in [1] is 54.8%.

On to `COc1cccc(-c2coc3ccccc23)n1`, for which the inhibition in [1] was found to be 34.8%.

In [1], `Cc1ccc(-c2coc3ccc([N+](=O)[O-])cc23)cc1` registered an inhibition of 32.6%.

Take `Cc1ccc2oc(-c3ccccc3)c(-c3ccccc3)c2c1`: the inhibition in assay [1] was 13.9%.

The molecule `Cc1ccc(-c2coc3c(Cl)cc([N+](=O)[O-])cc23)cc1` registered an inhibition in assay [1] of 30.3%.

In turn, `Oc1ccc2occ(-c3ccccc3)c2c1` returned an inhibition in assay [1] of 28%.

Consider `COc1ccc(-c2coc3ccc([N+](=O)[O-])cc23)cc1`, for which, in assay [1], the inhibition turned out to be 43.7%.

On to `COc1ccc2occ(-c3ccccc3)c2c1`, for which, in assay [1], the inhibition amounted to 27%.

In assay [1], `Cc1ccc(-c2coc3ccc(O)cc23)cc1C` gave an inhibition of 27.8%.

In turn, `Clc1cc(Cl)c2occ(-c3ccccc3)c2c1` gave an inhibition in assay [1] of 16.2%.

The molecule `COc1cccc2occ(-c3ccccc3)c12` showed an inhibition in assay [1] of 59.5%.

The molecule `COc1ccc2occ(-c3ccc(F)cc3)c2c1` had an inhibition in [1] of 30.7%.

`COc1cc(OC)c2c(-c3ccccc3)coc2c1`: in assay [1], the inhibition is 69.6%.

As for `c1ccc2c(-c3ccsc3)coc2c1`, the inhibition in [1] is 43.5%.

With `COc1ccc2occ(-c3ccc(C)cc3)c2c1`, in assay [1], the inhibition was found to be 29.8%.

Molecule `c1coc(-c2coc3ccccc23)c1` registered an inhibition in assay [1] of 22.2%.

`Clc1cccc2c(-c3ccccc3)c(-c3ccccc3)oc12`: the inhibition in assay [1] is 13.6%.

With `O=[N+]([O-])c1ccc2occ(-c3ccc4c(c3)OCO4)c2c1`, the inhibition in assay [1] turned out to be 23.4%.

In the case of `Clc1ccc2oc(-c3ccccc3)c(-c3ccccc3)c2c1`, the inhibition in assay [1] was determined as 22.9%.

In the case of `COc1cccc2c(-c3ccccc3)coc12`, in [1], the inhibition was 22.2%.

For `Brc1ccc2occ(-c3ccccc3)c2c1`, in assay [1], the inhibition was determined as 19.5%.

Molecule `c1ccc(-c2coc3ccccc23)cc1` returned an inhibition in assay [1] of 12.4%.

In assay [1], `O=C1C=CC(=O)c2c(O)cccc21` returned an inhibition of 52.6%.

Molecule `Oc1ccc2occ(-c3ccc(F)cc3)c2c1` returned an inhibition in assay [1] of 23.8%.

As to `N#Cc1ccc2occ(-c3ccc4c(c3)OCO4)c2c1`, in assay [1], the inhibition was found to be 46.9%.

In [1], `COc1ccc2occ(-c3ccc(Cl)cc3)c2c1` returned an inhibition of 18%.

Regarding `CC(C)(C)c1ccc2occ(-c3ccccc3)c2c1`, the inhibition in assay [1] amounted to 11%.

Turning to `COc1ccc2oc(-c3ccccc3)c(-c3ccccc3)c2c1`, the inhibition in assay [1] was 25.7%.

Take `Cc1ccc(-c2coc3ccc(O)cc23)cc1`: the inhibition in assay [1] worked out at 33.1%.

As to `CC(C)(C)c1ccc2occ(-c3ccc(Br)cc3)c2c1`, in assay [1], the inhibition amounted to 28.9%.

On to `COc1ccc2occ(-c3ccc(C)c(C)c3)c2c1`, for which the inhibition in [1] worked out at 23.7%.

In the case of `c1ccc(-c2oc3ccccc3c2-c2ccccc2)cc1`, the inhibition in [1] is 15.8%.

The molecule `Clc1ccc(-c2coc3ccccc23)cc1` had an inhibition in assay [1] of 18.3%.

As for `Cc1ccc(-c2coc3c(C)c(C)ccc23)cc1`, the inhibition in assay [1] is 64.6%.

In assay [1], `COc1ccc2c(C)coc2c1` displayed an inhibition of 65.1%.

On to `CC(C)(C)c1ccc2c(-c3ccc4c(c3)OCO4)coc2c1`, for which the inhibition in assay [1] was 63.7%.

In general, IC50 refers to the point on the concentration scale where inhibition reaches its midpoint. Consider `COc1ccc2c(-c3ccccc3)coc2c1`, for which the IC50 in [2] came out at 2.23 µM.

In the case of `Clc1ccc2occ(-c3ccccc3)c2c1`, the inhibition in assay [1] came to 19.2%.

As to `COc1cc(OC)c2c(C)coc2c1`, the inhibition in assay [1] was found to be 45.9%.

`Oc1ccc2occ(-c3ccc(Cl)cc3)c2c1` returned an inhibition in [1] of 13.8%.

On to `COc1ccc(-c2coc3ccc(C#N)cc23)cc1`, for which, in assay [1], the inhibition came out at 38.2%.

Molecule `Cc1cccc2c(-c3ccccc3)c(-c3ccccc3)oc12` registered an inhibition in assay [1] of 19.6%.

In assay [1], `O=[N+]([O-])c1ccc2occ(-c3cccc4ccccc34)c2c1` came in with an inhibition of 14%.

As to `c1ccc(COc2cc(OCc3ccccc3)c3c(-c4ccccc4)coc3c2)cc1`, the IC50 in assay [2] was found to be 0.874 µM; in the assay with SK-HEP1 [6] it was 1.14 µM; in the assay with SNU-423 it was 2.73 µM. The same molecule yielded an inhibition in [1] of 75.4%. For the same molecule, the inhibition result in assay [3], in [4] and in [11] was “inactive” each time. Further, the inhibition result in assay [5], in assay [8], in assay [9] and in [10] was “Active” each time. Moreover, the result in the assay on SK-HEP1 [7] was Active.
